This passage reports IC50, EC50 and AC50 results from ChEMBL document CHEMBL1201862, “PubChem BioAssay data set” (2004).

Assay [1] concerns the target Nonstructural protein 1 (Influenza A virus, UniProt Q194T2). It is filed as functional, Influenza A virus (A/California/07/2009(H1N1)).
Assay [2] addresses T1, Zinc finger protein mex-5 (Caenorhabditis elegans, UniProt Q9XUB2).
T1 sequence (Q9XUB2 whole entry): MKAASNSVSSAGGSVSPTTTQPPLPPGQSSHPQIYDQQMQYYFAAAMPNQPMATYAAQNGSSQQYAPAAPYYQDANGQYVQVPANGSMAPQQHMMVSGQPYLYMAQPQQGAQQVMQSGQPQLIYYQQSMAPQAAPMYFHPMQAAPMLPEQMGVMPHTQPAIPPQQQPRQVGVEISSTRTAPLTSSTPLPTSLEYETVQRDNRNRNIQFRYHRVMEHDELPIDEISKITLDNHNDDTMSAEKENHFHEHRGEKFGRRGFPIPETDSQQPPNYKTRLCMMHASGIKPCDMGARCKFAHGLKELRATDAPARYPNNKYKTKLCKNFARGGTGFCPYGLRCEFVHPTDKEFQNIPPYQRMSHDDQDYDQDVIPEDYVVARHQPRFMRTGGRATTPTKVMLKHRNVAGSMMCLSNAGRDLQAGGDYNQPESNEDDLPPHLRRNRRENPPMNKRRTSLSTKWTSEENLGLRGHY
Kind of assay: MEX-5/TCR-2 RNA interaction inhibitors, dose response, biochemical, C. elegans, fluorescence polarization (AID 1960). For orientation: Polarisation of emitted light reports the rotation of a fluorescent probe.

For assay [3], the target named is T2, 1-phosphatidylinositol 4,5-bisphosphate phosphodiesterase beta-3 (Homo sapiens, UniProt Q01970).
T2 sequence (Q01970 whole entry): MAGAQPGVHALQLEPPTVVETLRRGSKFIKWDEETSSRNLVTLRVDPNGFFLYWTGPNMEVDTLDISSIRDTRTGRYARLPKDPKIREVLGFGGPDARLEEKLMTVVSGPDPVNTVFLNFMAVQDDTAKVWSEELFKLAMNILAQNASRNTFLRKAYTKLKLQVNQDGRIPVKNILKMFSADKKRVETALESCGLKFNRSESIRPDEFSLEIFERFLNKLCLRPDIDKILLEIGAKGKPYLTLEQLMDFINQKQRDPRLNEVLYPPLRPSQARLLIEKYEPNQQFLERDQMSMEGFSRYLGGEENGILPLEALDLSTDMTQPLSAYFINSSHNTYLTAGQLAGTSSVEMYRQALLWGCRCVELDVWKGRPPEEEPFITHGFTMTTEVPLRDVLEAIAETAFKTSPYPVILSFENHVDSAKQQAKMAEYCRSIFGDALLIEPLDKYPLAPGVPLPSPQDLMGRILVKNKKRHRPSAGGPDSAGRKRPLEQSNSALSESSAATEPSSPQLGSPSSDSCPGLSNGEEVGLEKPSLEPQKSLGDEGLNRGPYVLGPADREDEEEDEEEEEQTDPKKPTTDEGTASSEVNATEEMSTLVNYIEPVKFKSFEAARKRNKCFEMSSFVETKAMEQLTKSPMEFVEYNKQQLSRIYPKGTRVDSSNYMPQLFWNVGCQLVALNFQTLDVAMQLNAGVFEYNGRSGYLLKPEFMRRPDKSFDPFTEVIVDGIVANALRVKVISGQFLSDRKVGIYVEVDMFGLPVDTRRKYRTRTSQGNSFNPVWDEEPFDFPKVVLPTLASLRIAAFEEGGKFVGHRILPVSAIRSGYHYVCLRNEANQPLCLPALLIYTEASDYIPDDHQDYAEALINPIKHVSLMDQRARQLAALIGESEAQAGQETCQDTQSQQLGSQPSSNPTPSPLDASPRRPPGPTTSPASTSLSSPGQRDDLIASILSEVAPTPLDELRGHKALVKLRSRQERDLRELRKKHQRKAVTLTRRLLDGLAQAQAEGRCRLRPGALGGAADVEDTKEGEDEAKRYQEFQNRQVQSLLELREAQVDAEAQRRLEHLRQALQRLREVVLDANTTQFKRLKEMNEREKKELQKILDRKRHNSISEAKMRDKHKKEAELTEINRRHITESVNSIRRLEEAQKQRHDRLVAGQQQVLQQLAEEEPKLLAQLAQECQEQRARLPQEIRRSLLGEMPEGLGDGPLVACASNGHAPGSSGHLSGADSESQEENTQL
Kind of assay: Fluorescence-based biochemical high throughput dose response assay to identify inhibitors of phospholipase C isozymes (PLC-B3).

Assay [4] addresses Albumin (Bos taurus, UniProt P02769). As to the kind of experiment: Counterscreen for inhibitors of T-cell receptor (TCR)-CD3 interaction: Fluorescence-based biochemical high throughput dose response assay to identify inhibitors of T-cell receptor (TCR)-CD3 interaction using a TAMRA-labeled BSA probe. It is filed as functional. Background: A counterscreen serves to expose hits that act by an unwanted route or on another target.

The target in assay [5] is Genome polyprotein (dengue virus type 2, UniProt P29990). As to the kind of experiment: Dengue-2 NS5 methyltransferase inhibitors, primary screen, biochemical, confirmation dose response (AID 588689). Format: functional.
Sequence of Genome polyprotein (P29990 2492-3391 limits assumed): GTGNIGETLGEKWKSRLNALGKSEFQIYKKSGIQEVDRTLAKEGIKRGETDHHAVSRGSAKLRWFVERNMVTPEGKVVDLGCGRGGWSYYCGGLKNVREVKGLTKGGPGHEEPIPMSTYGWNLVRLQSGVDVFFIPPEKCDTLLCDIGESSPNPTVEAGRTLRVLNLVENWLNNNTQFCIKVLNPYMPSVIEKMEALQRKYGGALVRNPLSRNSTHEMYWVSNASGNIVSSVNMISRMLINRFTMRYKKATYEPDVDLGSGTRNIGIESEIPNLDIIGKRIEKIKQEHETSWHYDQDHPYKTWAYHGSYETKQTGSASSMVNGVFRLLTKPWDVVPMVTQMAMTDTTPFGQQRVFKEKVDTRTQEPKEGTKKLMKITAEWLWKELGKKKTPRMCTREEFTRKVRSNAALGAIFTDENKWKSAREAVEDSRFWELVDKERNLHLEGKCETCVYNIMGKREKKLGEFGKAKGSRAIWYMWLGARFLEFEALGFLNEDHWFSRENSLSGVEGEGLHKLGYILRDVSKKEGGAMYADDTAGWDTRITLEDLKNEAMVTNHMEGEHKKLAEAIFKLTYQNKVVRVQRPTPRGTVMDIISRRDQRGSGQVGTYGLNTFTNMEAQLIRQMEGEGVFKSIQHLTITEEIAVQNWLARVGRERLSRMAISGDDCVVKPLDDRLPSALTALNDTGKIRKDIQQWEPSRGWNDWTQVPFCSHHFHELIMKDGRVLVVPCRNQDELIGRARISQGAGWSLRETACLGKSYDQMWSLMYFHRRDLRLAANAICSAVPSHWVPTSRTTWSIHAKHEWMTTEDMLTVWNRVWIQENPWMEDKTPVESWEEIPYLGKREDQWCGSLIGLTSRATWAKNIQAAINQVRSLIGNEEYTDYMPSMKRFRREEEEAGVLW
Assay [6] concerns the target T3, Replicative DNA helicase DnaB (Mycobacterium tuberculosis, UniProt P9WMR3).
T3 sequence (P9WMR3 whole entry): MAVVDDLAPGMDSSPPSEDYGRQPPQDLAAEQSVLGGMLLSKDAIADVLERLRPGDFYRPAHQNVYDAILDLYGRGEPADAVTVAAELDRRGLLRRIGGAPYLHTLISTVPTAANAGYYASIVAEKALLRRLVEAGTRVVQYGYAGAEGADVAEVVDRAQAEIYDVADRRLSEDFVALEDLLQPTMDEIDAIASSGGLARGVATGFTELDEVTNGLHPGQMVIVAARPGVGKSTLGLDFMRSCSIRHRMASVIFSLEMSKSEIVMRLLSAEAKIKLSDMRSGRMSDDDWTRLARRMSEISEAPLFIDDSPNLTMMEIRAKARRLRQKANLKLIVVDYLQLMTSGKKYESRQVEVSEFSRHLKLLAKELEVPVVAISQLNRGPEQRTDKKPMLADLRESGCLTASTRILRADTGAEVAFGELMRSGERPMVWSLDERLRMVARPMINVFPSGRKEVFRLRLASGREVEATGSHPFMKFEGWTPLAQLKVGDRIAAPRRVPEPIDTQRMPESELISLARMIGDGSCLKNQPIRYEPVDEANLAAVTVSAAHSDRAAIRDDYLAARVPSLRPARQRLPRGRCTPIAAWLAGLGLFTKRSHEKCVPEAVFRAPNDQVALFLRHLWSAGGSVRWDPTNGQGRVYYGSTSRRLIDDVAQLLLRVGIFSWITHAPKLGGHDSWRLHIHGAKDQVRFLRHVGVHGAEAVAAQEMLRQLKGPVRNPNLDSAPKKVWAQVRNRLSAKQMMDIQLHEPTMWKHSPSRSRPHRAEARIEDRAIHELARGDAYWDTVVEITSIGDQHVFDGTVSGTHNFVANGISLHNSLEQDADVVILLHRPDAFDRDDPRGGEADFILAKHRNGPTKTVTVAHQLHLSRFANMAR
As to the kind of experiment: DnaB intein splicing inhibitors, dose response, biochemical, cell-free fluorescence (AID 449749). It is filed as functional.

Structures are written as SMILES. Active and inactive are the calls of the source.

Sequence of Nonstructural protein 1 (Q194T2 whole entry): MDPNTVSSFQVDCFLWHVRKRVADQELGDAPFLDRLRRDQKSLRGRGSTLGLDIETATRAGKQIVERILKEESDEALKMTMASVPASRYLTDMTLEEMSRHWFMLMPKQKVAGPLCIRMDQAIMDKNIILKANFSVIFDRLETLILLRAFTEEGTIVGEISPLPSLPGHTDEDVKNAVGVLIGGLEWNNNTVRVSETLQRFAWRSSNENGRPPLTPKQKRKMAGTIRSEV
Sequence of Albumin (P02769 whole entry): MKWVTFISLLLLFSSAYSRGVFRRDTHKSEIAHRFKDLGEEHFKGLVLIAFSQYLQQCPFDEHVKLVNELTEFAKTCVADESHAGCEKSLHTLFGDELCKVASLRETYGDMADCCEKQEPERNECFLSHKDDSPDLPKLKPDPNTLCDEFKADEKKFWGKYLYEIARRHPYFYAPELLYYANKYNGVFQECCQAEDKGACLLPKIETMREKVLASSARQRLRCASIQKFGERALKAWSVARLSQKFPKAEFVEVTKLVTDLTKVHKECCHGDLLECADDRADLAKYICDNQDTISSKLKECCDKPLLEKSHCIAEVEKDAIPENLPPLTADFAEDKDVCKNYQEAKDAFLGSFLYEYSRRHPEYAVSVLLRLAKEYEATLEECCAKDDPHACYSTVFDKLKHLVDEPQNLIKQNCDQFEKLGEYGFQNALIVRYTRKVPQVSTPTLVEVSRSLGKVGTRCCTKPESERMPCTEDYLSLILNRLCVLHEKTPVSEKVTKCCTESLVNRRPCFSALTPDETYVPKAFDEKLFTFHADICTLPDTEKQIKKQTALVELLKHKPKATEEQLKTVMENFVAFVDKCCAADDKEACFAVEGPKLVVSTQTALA

Regarding `Oc1ccc(/C=N/NC(=S)Nc2cccnc2)c(O)c1O`, the IC50 was 3.58 µM (active) in assay [1], > 122 µM (inactive) in assay [3], > 94.1 µM (inactive) in assay [4] and 24.4 µM (active) in assay [5]. Moreover, the EC50 in assay [2] was 86 nM (active).

Regarding `COC(=O)c1ccc(-c2ccc(C(c3c(C)[nH][nH]c3=O)c3c(C)[nH][nH]c3=O)o2)cc1`, the IC50 in assay [5] was > 100 µM (active). Further, the AC50 in assay [6] is 595 nM (inconclusive).

As a reminder, the IC50 is the concentration needed to halve the response being measured. As a reminder, the EC50 is the concentration needed to bring the measured effect to its halfway point. Broadly, the AC50 is the concentration giving half of the maximal activity seen.
